Measurements: patent US20210276960A1, “INHIBITORS OF TISSUE TRANSGLUTAMINASE 2 (TG2) AND USES THEREOF” (Northwestern University, priority 2020, published 2021)

What was measured:
[1] = system: integrin β1 on SKOV3 cells; test: Flow cytometry of surface integrin β1, SKOV3; format: cell-based; conditions: serial concentrations
Protocol: FIG. 32. Flow cytometry analysis of integrin 31 plasma membrane expression. […] OC cells were pre-incubated 1 h with serial dilutions of MT4 (as compared to TG53- and DMSO-treated cells), and left to attach for on either plastic (P) or fibronectin (FN) coated 6-well plates. Anti-integrin 31 antibodies (0.5 μg/mL) were used as control.

[2] = system: FAK and ERK phosphorylation in OVCAR5 cells; test: Western blotting, time course after attachment to FN; format: cell-based, human; conditions: 5 μM
Protocol: FIG. 5. Effects of SMIs targeting the TG2/FN complex on “outside-in” signaling and adhesion to mesothelial surfaces. A, Western blot analysis of total and phosphorylated FAK and ERK was performed using cell lysates extracted from OVCAR cells plated on FN for 15 to 45 minutes in the presence of TG53 (left) or MT-4 (right) at 5 μM concentration, as compared to DMSO. GAPDH was used as a control. OVCAR5 cells had been pretreated with the inhibitors for 72 hours. Densitometry analysis used the Quantity One software and results were normalized to GAPDH loading controls. DMSO 0 min time point was considered as 1 for comparative analysis. Values are shown for each band. B, A modified cell adhesion assay measured the effects of TG53, MT-4, MT-5, and MT-6 (25 μM) on SKOV3 cells' adhesion onto semi-confluent LP9 monolayers. C, Dose-dependent effects of TG53, MT-4, MT-5, and MT-6 on OVCAR433 cells adhesion onto semi-confluent LP9 monolayers. D-E, Wound healing assay measures migration of SKOV3 and OVCAR5 cells in the presence of MT-4, MT-5, MT-6 at a concentration of 8 μM (black bars) or vehicle (open bar). Migration rate was determined over a period of 24 hours by measuring the average distance between the wound borders at the beginning and at the end of the assay interval (n=4). F-G, SKOV3-GFP OC cells were injected ip in NSG mice in the presence of either MT-4 ([…]) (F) or MT-6 ([…]) (G) and allowed to attach to the peritoneal wall. After 2 hours, the cell suspension was recovered from the peritoneal cavity through peritoneal washings and the non-attached OC cells recovered were counted. *p<0.05, **p<0.01, ***p<0.001, ****p<0.0001.
OVCAR5 cells were seeded(1×10^5 cells/well) in 6-well plates (Denville Scientific) and treated for 72 hrs with 1 μM MT-4, TG53 or vehicle control (DMSO). After drug exposure, cells were detached using Cellstripper (cellgro, #25-056-CI, CORNING, Manassas, Va., USA), centrifuged, and counted. Before seeding for either confocal microscopy or western blotting, they were incubated in serum free media in the presence of drugs for 15-90 minutes, as stated in the figure legends.
Cells pre-treated as stated above were seeded in 60 mm dishes coated with 5 μg/mL FN and serially harvested at 15, 30, and 45 minutes, − or left unattached (0 min), in cold RIPA buffer. Lysates were separated by SDS-PAGE, transferred onto PVDF membranes (Bio-Rad), incubated with primary and secondary antibodies and developed by using SuperSignal™ West Femto Maximum Sensitivity Substrate and Pierce™ ECL Western Blotting Substrate, respectively (Thermo Scientific). […] Densitometry analysis was performed using Quantity One software (Bio-Rad) and results were normalized to GAPDH loading controls. […]

OVCAR5 cells = test: TIRF microscopy of β1 integrin distribution; format: cell-based, human; conditions: 1 μM or 5 μM, 1 h pre-treatment
Protocol: For assessing the potential effect of SMIs on 01 integrin distribution at the interface between cells and the FN matrix, OVCAR5 cells were treated for 1 h with either TG53 or MT-4 in serum-free media at 37° C., and then seeded onto FN-coated glass bottom microwell dishes (MatTek Corp. Ashland, Mass.) for 45 minutes at 37° C. Samples were fixed in PFA and blocked in 1% BSA. 01 integrin receptors were detected by using anti-01 integrin antibodies (clone P5D2, Chemicon, #MAB1959, 1:100) and AlexaFluor 568-conjugated anti-mouse secondary antibodies, while actin was labeled using Alexa Fluor 488-conjugated phalloidin. Cells were imaged with a Nikon Ti2 Microscope equipped with a Photometrics Prime 95B camera using a Nikon Plan Apo 100×1.49 NA TIRF objective.

Structure (SMILES): Cc1cc(N(C)C)nc(Nc2ccc(NC(=O)Cc3ccccc3)cc2)n1 [MT-4]
- β1 integrin receptors at the plasma membrane [1]: did not show significant downregulation
- ERK phosphorylation, time course ([2]; 15 to 45 minutes on FN): inhibited and delayed
- FAK phosphorylation, time course ([2]; 15 to 45 minutes on FN): more evident
- β1 integrin distribution at the interface with FN (OVCAR5 cells): enhanced 31 integrin transposition towards the extreme edge of the cell

Structure (SMILES): COc1ccc(Cl)cc1C(=O)Nc1ccc(Nc2nc(C)cc(N(C)C)n2)cc1 [TG53]
- β1 integrin receptors at the plasma membrane [1]: did not show significant downregulation
- FAK phosphorylation, time course ([2]; 15 to 45 minutes on FN): modestly delayed
- time of peak FAK activation post cell seeding on FN ([2]; control 15 minutes): 30 min
- β1 integrin distribution at the interface with FN (OVCAR5 cells): modest displacement of integrin receptors towards the cell perimeter
